The experiment concerns the target PIK3CA (human) (UniProt P42336). The experiment is described as follows: Assessment of PI3KCA Kinase Activity.
Sequence of PIK3CA (human) (P42336 whole entry, looked up): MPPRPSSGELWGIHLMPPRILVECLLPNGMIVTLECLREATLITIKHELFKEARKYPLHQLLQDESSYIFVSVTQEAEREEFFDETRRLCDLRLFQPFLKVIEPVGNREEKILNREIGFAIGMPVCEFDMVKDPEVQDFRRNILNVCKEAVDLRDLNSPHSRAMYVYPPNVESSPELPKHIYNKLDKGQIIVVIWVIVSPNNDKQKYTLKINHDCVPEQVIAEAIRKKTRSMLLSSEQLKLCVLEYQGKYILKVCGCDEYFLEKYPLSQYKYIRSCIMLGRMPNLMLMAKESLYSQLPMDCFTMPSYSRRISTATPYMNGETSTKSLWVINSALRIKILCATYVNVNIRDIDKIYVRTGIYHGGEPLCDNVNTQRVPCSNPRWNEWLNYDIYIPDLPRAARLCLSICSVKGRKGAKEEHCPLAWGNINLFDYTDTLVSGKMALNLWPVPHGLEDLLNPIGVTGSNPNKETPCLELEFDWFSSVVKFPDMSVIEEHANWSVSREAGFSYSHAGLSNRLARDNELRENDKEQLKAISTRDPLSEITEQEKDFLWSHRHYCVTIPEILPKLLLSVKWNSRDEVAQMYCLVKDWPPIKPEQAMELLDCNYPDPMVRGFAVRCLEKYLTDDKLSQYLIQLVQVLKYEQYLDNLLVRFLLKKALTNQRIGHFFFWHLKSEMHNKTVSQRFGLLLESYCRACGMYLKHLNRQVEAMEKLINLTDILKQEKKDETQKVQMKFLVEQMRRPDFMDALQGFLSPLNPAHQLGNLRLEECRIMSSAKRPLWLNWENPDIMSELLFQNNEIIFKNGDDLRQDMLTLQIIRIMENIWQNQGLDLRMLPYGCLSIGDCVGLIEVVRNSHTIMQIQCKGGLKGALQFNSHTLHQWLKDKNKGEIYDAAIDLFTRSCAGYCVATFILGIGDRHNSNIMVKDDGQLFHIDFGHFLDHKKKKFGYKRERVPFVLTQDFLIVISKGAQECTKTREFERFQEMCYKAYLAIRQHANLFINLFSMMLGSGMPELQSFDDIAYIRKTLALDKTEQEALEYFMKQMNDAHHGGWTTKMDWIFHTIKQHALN
Consider `CC(=O)Nc1cc(-c2nc(-c3ccc(Cl)cc3Cl)c(-c3nc(C)c(C)[nH]3)s2)ccn1`, for which the IC50 is 0.1 to 1 µM. For the compound `N#Cc1c(-c2ccnc(F)c2)sc(-c2nnc[nH]2)c1-c1ccc(Cl)cc1Cl`, the IC50 was 0.1 to 1 µM.

In turn, `CC(=O)Nc1cc(-c2nc(-c3ccc(Cl)c(Cl)c3)c(-c3ncc[nH]3)s2)ccn1` displayed a concentration for half-maximal inhibition (IC50) below 0.1 µM. With `Clc1ccc(-c2cc(-c3ccnc4[nH]ccc34)sc2-c2ncc[nH]2)c(Cl)c1` the figure was below 0.1 µM; with `N#Cc1c(-c2ccnc(N)c2)sc(C(N)=O)c1-c1ccc(Cl)cc1Cl`, below 0.1 µM.

Turning to `Cc1nn2ccc(OCCNC(=O)C(C)(C)C)cc2c1-c1nc(-c2ccccc2)c(-c2nc[nH]n2)s1`, the concentration for half-maximal inhibition (IC50) is below 0.1 µM.

In turn, `COC(=O)c1cnc(-c2sc(-c3ccnc(NC(C)=O)c3)c(C#N)c2-c2ccc(Cl)cc2Cl)[nH]1` came in with an IC50 of 0.1 to 1 µM. Next, `CC(=O)Nc1cc(-c2nc(-c3cc(CO)ccc3Cl)c(-c3ncc[nH]3)s2)ccn1`: below 0.1 µM; `Cc1nn2ccsc2c1-c1nc(-c2ccccc2)c(-c2nccs2)s1`: below 0.1 µM.

Turning to `Cc1nnc(-c2sc(-c3c(C)nn4ccsc34)nc2-c2ccccc2)[nH]1`, the IC50 is below 0.1 µM. With `Cc1nn2ccccc2c1-c1nc(N(C)c2ccc(Cl)cc2)c(-c2nnc[nH]2)s1` the figure was below 0.1 µM. Next, `CC(=O)Nc1cc(-c2nc(-c3ccc(Oc4ccccc4)cc3)c(-c3ncc[nH]3)s2)ccn1`: 0.1 to 1 µM; `N#Cc1c(-c2ccnc(NC(=O)CN)c2)sc(-c2nnc[nH]2)c1-c1ccc(Cl)cc1Cl`: below 0.1 µM; `CC(=O)Nc1cc(-c2nc(-c3ccc(Cl)cc3Cl)c(-c3nc(C)c[nH]3)s2)ccn1`: below 0.1 µM.

`N#Cc1c(-c2ccnc(NC(=O)c3cnccn3)c2)sc(-c2nnc[nH]2)c1-c1ccc(Cl)cc1Cl` registered a half-inhibitory concentration (IC50) of 0.1 to 1 µM.

In turn, `CCC(=O)Nc1cc(-c2nc(-c3ccc(Cl)cc3Cl)c(-c3ncc[nH]3)s2)ccn1` had an IC50 below 0.1 µM. The compound `CCOc1nc(-c2ccnc(NC(=O)C3CCCC3)c2)sc1-c1nnc[nH]1` had a concentration for half-maximal inhibition (IC50) of 0.1 to 1 µM. With `COC[C@H]1CCCN1CCC(=O)Nc1cc(-c2nc(-c3ccccc3)c(-c3nnc[nH]3)s2)ccn1` the figure was below 0.1 µM; with `Cc1nn2ccccc2c1-c1nc(-c2cnn(Cc3cccnc3)c2)c(-c2nc[nH]n2)s1`, 0.1 to 1 µM. With `N#Cc1c(-c2ccnc(F)c2)sc(C(N)=O)c1-c1ccc(Cl)cc1Cl` the figure was 0.1 to 1 µM; with `N#Cc1c(-c2ccnc(Nc3nccs3)c2)sc(-c2ncc[nH]2)c1-c1ccc(Cl)cc1Cl`, below 0.1 µM. Next, `COC(=O)Nc1cc(-c2sc(-c3ncc[nH]3)c(-c3ccc(Cl)cc3Cl)c2C#N)ccn1`: below 0.1 µM; `CC(=O)Nc1cc(-c2nc(-c3ccccc3)c(-c3nnc[nH]3)s2)cc(C)n1`: 0.1 to 1 µM. `CC(=O)Nc1cc(-c2nc(-c3ccc(N)nc3)c(-c3ncc[nH]3)s2)ccn1` yielded an IC50 of 0.1 to 1 µM. Next, `Cc1nn2ccccc2c1-c1nc(-c2ccccc2C(F)(F)F)c(-c2nnc[nH]2)s1`: below 0.1 µM. With `N#Cc1c(-c2ccnc(NC(=O)C3CC3)c2)sc(-c2nnc[nH]2)c1-c1ccc(Cl)cc1Cl` the figure was below 0.1 µM; with `CCOc1nc(-c2ccnc(NC(C)=O)c2)sc1-c1nnc[nH]1`, below 0.1 µM; with `CC(=O)Nc1cc(-c2nc(-c3ccc(Cl)cc3Cl)c(-c3nnc[nH]3)s2)ccn1`, below 0.1 µM. With `COC(=O)Nc1cc(-c2nc(-c3ccc(Cl)cc3Cl)c(-c3ncc[nH]3)s2)ccn1` the figure was below 0.1 µM.

The compound `CC(C)(C)Nc1nc2c(-c3cc(-c4ccc(Cl)cc4Cl)c(-c4ncc[nH]4)s3)ncnc2s1` displayed an IC50 below 0.1 µM. For the compound `COc1cccc(F)c1-c1ccc2nc(C)c(-c3nc(-c4ccccc4)c(-c4nc[nH]n4)s3)n2c1`, the IC50 is 0.1 to 1 µM. With `Cc1nn2ccccc2c1-c1nc(-c2cn(C)nc2C(F)(F)F)c(-c2nc[nH]n2)s1`, the half-inhibitory concentration (IC50) is below 0.1 µM. With `Cc1nc2ccc(Br)cn2c1-c1nc(-c2ccccc2)c(-c2nc[nH]n2)s1` the figure was 0.1 to 1 µM. With `N#Cc1c(-c2ccnc(NC(=O)c3ccncc3)c2)sc(-c2nnc[nH]2)c1-c1ccc(Cl)cc1Cl` the figure was 0.1 to 1 µM; with `N#Cc1c(-c2ccnc(NC(=O)C3CC3)c2)sc(-c2ccn[nH]2)c1-c1ccc(Cl)cc1Cl`, below 0.1 µM. `COc1cccc(F)c1-c1nc(-c2c(C)nn3ccc(OCCN4CCN(C)CC4)cc23)sc1-c1nc[nH]n1` registered a 50% inhibitory concentration (IC50) below 0.1 µM.

The record behind these values is the Kinase Knowledgebase extract (Sharma et al. 2016).
